From US11840497B2, “4-(p-quinonyl)-2-hydroxybutanamide derivatives for treatment of mitochondrial diseases” (PTC Therapeutics, Inc., priority 2007, dated 2023)

Assays:
Assay type in all cases: cell-based
[1] = tested on: Human dermal fibroblasts from Friedreich's Ataxia patients; test: Rescue of BSO-stressed FRDA fibroblasts (Example A); settings: FRDA fibroblasts GM04078, 1 mM BSO, read-out: protection against FRDA, EC50
Procedure: Test samples, 4 reference compounds (idebenone, decylubiquinone, Trolox and α-tocopherol acetate), and solvent controls were tested for their ability to rescue FRDA fibroblasts stressed by addition of L-buthionine (S,R)-sulfoximine (BSO), as described in Jauslin et al., Hum. Mol. Genet. […] Mol. Genet. […] This specific BSO-mediated cell death can be prevented by administration of antioxidants or molecules involved in the antioxidant pathway, such as α-tocopherol, selenium, or small molecule glutathione peroxidase mimetics. However, antioxidants differ in their potency, i.e. the concentration at which they are able to rescue BSO-stressed FRDA fibroblasts.
Fetal Calf Serum was obtained from PAA Laboratories. Basic fibroblast growth factor and epidermal growth factor were purchased from PeproTech. Penicillin-streptomycin-glutamine mix, L-buthionine (S,R)-sulfoximine, (+)-α-tocopherol acetate, decylubiquinone, and insulin from bovine pancreas were purchased from Sigma. Trolox (6-Hydroxy-2,5,7,8-tetramethylchroman-2-carboxylic acid) was obtained from Fluka. Idebenone was obtained from Chemo Iberica. Calcein AM was purchased from Molecular Probes. Cell culture medium was made by combining 125 ml M199 EBS, 50 ml Fetal Calf Serum, 100 U/ml penicillin, 100 μg/ml streptomycin, 2 mM glutamine, 10 μg/ml insulin, 10 ng/ml EGF, and 10 ng/ml bFGF; MEM EBS was added to make the volume up to 500 ml. […] During the course of the experiments, this solution was stored at +4° C. The cells were obtained from the Coriell Cell Repositories (Camden, NJ; repository number GM04078) and grown in 10 cm tissue culture plates. Every third day, they were split at a 1:3 ratio.
The test samples were supplied in 1.5 ml glass vials. […] Once dissolved, they were stored at −20° C. Reference antioxidants (idebenone, decylubiquinone, α-tocopherol acetate and trolox) were dissolved in DMSO.
Test samples were screened according to the following protocol: A culture with FRDA fibroblasts was started from a 1 ml vial with approximately 500,000 cells stored in liquid nitrogen. […] Once confluent, fibroblasts were harvested. […] The remaining cells were distributed in 10 cm cell culture plates (500,000 cells/plate) for propagation. The plates were incubated overnight at 37° C. in a atmosphere with 95% humidity and 5% CO2 to allow attachment of the cells to the culture plate.
MTP medium (243 μl) was added to a well of the microtiter plate. […] Serial dilutions from the master solution were made. The period between the single dilution steps was kept as short as possible (generally less than 1 second).
Plates were kept overnight in the cell culture incubator. The next day, 10 μl of a 10 mM BSO solution were added to the wells, resulting in a 1 mM final BSO concentration. Forty-eight hours later, three plates were examined under a phase-contrast microscope to verify that the cells in the 0% control (wells E1-H1) were clearly dead. The medium from all plates was discarded, and the remaining liquid was removed by gently tapping the plate inversed onto a paper towel.
The plates were incubated for 50-70 minutes at room temperature. After that time the PBS was discarded, the plate gently tapped on a paper towel and fluorescence (excitation/emission wavelengths of 485 nm and 525 nm, respectively) was read on a Gemini fluorescence reader. Data was imported into Microsoft Excel (EXCEL is a registered trademark of Microsoft Corporation for a spreadsheet program) and used to calculate the EC50 concentration for each compound.
The compounds were tested three times, i.e., the experiment was performed three times, the passage number of the cells increasing by one with every repetition.
The viability of non-BSO treated fibroblasts was set as 100%, and the viability of the BSO- and compound-treated cells was calculated as relative to this value.

[2] = tested on: human dermal fibroblasts from Huntington's patients; test: Rescue of BSO-stressed fibroblasts from Huntington's patients (Example B); settings: Fibroblast, Huntington's fibroblasts GM 04281, screen as Example A, read-out: protection against Hungtington's, EC50
Procedure: The compounds were tested for their ability to rescue human dermal fibroblasts from Huntington's patients from oxidative stress.

[3] = tested on: human dermal fibroblasts from LHON patients; test: Rescue of BSO-stressed fibroblasts from LHON patients (Example C); settings: Fibroblast, LHON fibroblasts GM03858, screen as Example A, read-out: protection against LHON, EC50
Procedure: The compounds were tested for their ability to rescue human dermal fibroblasts from LHON patients from oxidative stress.

[4] = tested on: human dermal fibroblasts from Parkinson's Disease patients; test: Rescue of BSO-stressed fibroblasts from Parkinson's Disease patients (Example D); settings: Fibroblast, PD fibroblasts AG20439, screen as Example A, read-out: protection against PD, EC50
Procedure: The compounds were tested for their ability to rescue human dermal fibroblasts from Parkinson's Disease patients from oxidative stress.

[5] = tested on: human dermal fibroblasts from CoQ10 deficient patients; test: Rescue of stressed fibroblasts from CoQ10 deficient patients (Example E); settings: Fibroblast, fibroblasts harboring a CoQ2 mutation, screen similar to Example A, read-out: protection against CoQ10 deficiency, EC50
Procedure: Compounds of the invention were tested using a screen similar to the one described in Example A, but substituting FRDA cells with cells obtained from CoQ10 deficient patients harboring a CoQ2 mutation.

Measured: EC50

CC1=C(C)C(=O)C(CCC(C)(O)C(=O)NCCO)=C(C)C1=O (stereo not shown) [Example 20, 2-Hydroxy-N-(2-hydroxyethyl)-2-methyl-4-(2,4,5-trimethyl-3,6-dioxocyclohexa-1,4-dienyl)butanamide]
< 100 nM: all assays above

CC1=C(C)C(=O)C(CC[C@](C)(O)C(=O)NCCO)=C(C)C1=O [Example 28, (S)-2-hydroxy-N-(2-hydroxyethyl)-2-methyl-4-(2,4,5-trimethyl-3,6-dioxocyclohexa-1,4-dienyl)butanamide]
< 100 nM: [1] | [2] | [4]

CC1=C(C)C(=O)C(CCC(C)(O)C(=O)NCCOCCO)=C(C)C1=O (stereo not shown) [Example 25, 2-Hydroxy-N-(2-(2-hydroxyethoxy)ethyl)-2-methyl-4-(2,4,5-trimethyl-3,6-dioxocyclohexa-1,4-dienyl)butanamide]
not listed: [5]
< 100 nM: all other assays above

CC1=C(C)C(=O)C(CCC(C)(O)C(=O)NCCCN(C)C)=C(C)C1=O (stereo not shown) [Example 40, N-(3-(Dimethylamino)propyl)-2-hydroxy-2-methyl-4-(2,4,5-trimethyl-3,6-dioxocyclohexa-1,4-dienyl)butanamide]
< 100 nM: [1] | [2] | [4]

CC1=C(C)C(=O)C(CCC(C)(O)C(=O)N2CCN(Cc3ccccc3)CC2)=C(C)C1=O (stereo not shown) [Example 15, 2-(4-(4-Benzylpiperazin-1-yl)-3-hydroxy-3-methyl-4-oxobutyl)-3,5,6-trimethylcyclohexa-2,5-diene-1,4-dione]
not listed: [5]
< 100 nM: all other assays above

CC1=C(C)C(=O)C(CCC(C)(O)C(=O)NCCc2ccc(O)cc2)=C(C)C1=O (stereo not shown) [Example 36, N-(4-Hydroxyphenethyl)-2-hydroxy-2-methyl-4-(2,4,5-trimethyl-3,6-dioxocyclohexa-1,4-dienyl)butanamide]
not listed: [5]
< 100 nM: all other assays above

CC1=C(C)C(=O)C(CCC(C)(O)C(=O)NCCN(C)C)=C(C)C1=O (stereo not shown) [Example 37, N-(2-(Dimethylamino)ethyl)-2-hydroxy-2-methyl-4-(2,4,5-trimethyl-3,6-dioxocyclohexa-1,4-dienyl)butanamide]
< 100 nM: all assays above
